# Target: T1, STAT6 (Homo sapiens, UniProt P42226)
# T1 construct: These cells express endogenous STAT6; host or cells: HeLa LgBiT clone 4.14
# T1 sequence (P42226 1-847): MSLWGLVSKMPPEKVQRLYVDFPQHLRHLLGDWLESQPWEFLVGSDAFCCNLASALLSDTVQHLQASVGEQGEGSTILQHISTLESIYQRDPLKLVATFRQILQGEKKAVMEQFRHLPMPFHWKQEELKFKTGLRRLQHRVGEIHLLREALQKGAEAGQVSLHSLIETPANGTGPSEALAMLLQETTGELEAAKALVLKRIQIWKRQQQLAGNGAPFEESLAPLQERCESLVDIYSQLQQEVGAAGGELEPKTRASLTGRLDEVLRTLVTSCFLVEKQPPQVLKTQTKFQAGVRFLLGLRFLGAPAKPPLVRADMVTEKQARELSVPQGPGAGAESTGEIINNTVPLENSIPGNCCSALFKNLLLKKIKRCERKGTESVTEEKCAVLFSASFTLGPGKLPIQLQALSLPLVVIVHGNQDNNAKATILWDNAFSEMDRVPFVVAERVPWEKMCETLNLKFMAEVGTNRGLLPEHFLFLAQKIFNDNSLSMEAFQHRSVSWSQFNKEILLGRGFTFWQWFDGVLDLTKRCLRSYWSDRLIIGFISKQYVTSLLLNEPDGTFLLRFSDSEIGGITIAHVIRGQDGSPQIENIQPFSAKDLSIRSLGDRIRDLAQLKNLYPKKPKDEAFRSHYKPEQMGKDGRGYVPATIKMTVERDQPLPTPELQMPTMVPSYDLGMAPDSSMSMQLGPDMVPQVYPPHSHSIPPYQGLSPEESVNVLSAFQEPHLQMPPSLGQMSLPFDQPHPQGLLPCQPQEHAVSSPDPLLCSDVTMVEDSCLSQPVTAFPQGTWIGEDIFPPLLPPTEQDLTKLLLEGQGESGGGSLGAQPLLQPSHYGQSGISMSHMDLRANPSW
# Assay: Stat6 Degrader Assay (HiBiT based, HeLa LgBiT clone 4.14)
# Type: cell-based
# Conditions: HeLa LgBiT clone 4.14 HiBiT-STAT6, 4-24 h incubation; read-out: STAT6 degradation Emax
# Protocol: This was a HiBit based assay. A HeLa cell line stably transfected with a small protein, LgBit (Large Bit) was obtained from Promega. These cells express endogenous STAT6. A small 11 amino acid gene sequence (HiBiT) was inserted in the STAT6 gene using CRISPR technology. Once STAT6 protein is expressed in the cells, the HiBiT sequence will bind the LgBit in the cells resulting in a functional NanoBiT protein, giving a luminescent tag to STAT6, see FIG. 2.
# Single cell clones were prepared and the clone 4.14 was selected for the assay based on that clone showing high luminescence, high STAT6 phosphorylation upon stimulation with IL-4, and inhibition of luminescence when cells were treated with STAT6 siRNA.
# HeLa LgBiT clone 4.14 cells were suspended in DMEM with 10% FCS, 1% Pen/Strep, Na-pyrovate and Hygromycin B, at a concentration of 1.25*105 cells pr mL. 5000 cells were added pr well of a 384 well plate and 20 nL of compound was added by Echo® liquid handler. NN6394A (terfenadine, a toxic compound) was added to control wells at 50 μM concentration to establish the assay window. In these wells the cells are dead which equals 100% degradation of STAT6.
# After 4-24 h of incubation at 37° C. under 5% CO2/95% air, 5 μL substrate (Nano-GLO®) was added to the wells and the plates were centrifuged and incubated for 0.5 h.
# The luminescence in the wells as a measure of non-degraded STAT6 was measured in a plate reader (BMG Pherastar FSX).
# The dose-response curves for Examples 3u208, 3u246, 3u118, 3u119, 3u120, and 3u74 are shown in FIG. 1 (where percent degradation is plotted vs. test compound concentration in M on a log-scale).
row,Compound,Emax
1,"CNc1ccn(-c2ccnc3c2cc(CN2CCC(c4c(F)cc(C(=O)N5CCC(CN6CCN(c7cc8c(cc7F)n(C7CCC(=O)NC7=O)c(=O)n8C)CC6)CC5)cc4F)CC2)n3C)c(=O)c1F (centres unmarked) [Example 3u274, 3-(5-(4-((1-(3,5-difluoro-4-(1-((4-(3-fluoro-4-(methylamino)-2-oxopyridin-1 (2H)-yl)-1-methyl-1H-pyrrolo[2,3-b]pyridin-2-yl)methyl)piperidin-4-yl)benzoyl)piperidin-4-yl)methyl)piperazin-1-yl)-6-fluoro-3-methyl-2-oxo-2,3-dihydro-1H-benzo[d]imidazol-1-yl)piperidine-2,6-dione]",< 20%
2,"CNc1cc(=O)n(-c2ccnc3c2cc(CN2CCC(c4c(F)cc(C(=O)N5CCC(CCn6cc(-c7ccc8c(c7)n(C)c(=O)n8C7CCC(=O)NC7=O)nn6)CC5)cc4F)CC2)n3C)cc1F (centres unmarked) [Example 3u263, 3-(5-(1-(2-(1-(3,5-difluoro-4-(1-((4-(5-fluoro-4-(methylamino)-2-oxopyridin-1 (2H)-yl)-1-methyl-1H-pyrrolo[2,3-b]pyridin-2-yl)methyl)piperidin-4-yl)benzoyl)piperidin-4-yl)ethyl)-1H-1,2,3-triazol-4-yl)-3-methyl-2-oxo-2,3-dihydro-1H-benzo[d]imidazol-1-yl)piperidine-2,6-dione]",70 to 80%
3,"CNc1cc(=O)n(-c2ccnc3c2cc([C@H](C)N2CC=C(c4c(C)cc(C(=O)N5CCC(CN6CCN(Cc7ccc8c(c7)n(C7CC7)c(=O)n8C7CCC(=O)NC7=O)C[C@@H]6C)CC5)cc4F)CC2)n3C)cc1OC (stereo partly drawn) [Example 3u134, 3-(3-cyclopropyl-5-(((S)-4-((1-(3-fluoro-4-(1-((S)-1-(4-(5-methoxy-4-(methylamino)-2-oxopyridin-1 (2H)-yl)-1-methyl-1H-pyrrolo[2,3-b]pyridin-2-yl)ethyl)-1,2,3,6-tetrahydropyridin-4-yl)-5-methylbenzoyl)piperidin-4-yl)methyl)-3-methylpiperazin-1-yl)methyl)-2-oxo-2,3-dihydro-1H-benzo[d]imidazol-1-yl)piperidine-2,6-dione]",20 to 30%

# Same assay, conditions: HeLa LgBiT clone 4.14 HiBiT-STAT6, 4-24 h incubation; values given for compounds with >80% Emax; geometric mean; read-out: STAT6 degradation DC50
row,Compound,DC50
1,"Cc1cc(C(=O)N2CCC(CN3CCN(Cc4ccc5c(c4)n(C)c(=O)n5[C@H]4CCC(=O)NC4=O)C[C@@H]3C)CC2)cc(F)c1C1CCN(Cc2cc3c(-n4ccc5c(c4=O)CCN5)ccnc3n2C)CC1 (single isomer, unassigned) [Example 3u41]",6 nM
2,"Cc1cc(C(=O)N2CCC(CN3CCN(Cc4ccc5c(c4)n(C4CC4)c(=O)n5[C@H]4CCC(=O)NC4=O)CC3)CC2)cc(F)c1C1=CCN([C@@H](C)c2cc3c(-n4ccc5c(c4=O)CCN5)ccnc3n2C)CC1 (single isomer, unassigned) [Example 3u142]",2.4 nM
3,"CNc1ccn(-c2ccnc3c2cc([C@H](C)N2CC=C(c4c(C)cc(C(=O)N(C)C5CCC(C6CCN(Cc7ccc8c(c7)n(C)c(=O)n8C7CCC(=O)NC7=O)CC6)CC5)cc4F)CC2)n3C)c(=O)c1 (stereo partly drawn) [Example 3u252, N-(4-(1-((1-(2,6-dioxopiperidin-3-yl)-3-methyl-2-oxo-2,3-dihydro-1H-benzo[d]-imidazol-5-yl)methyl)piperidin-4-yl)cyclohexyl)-3-fluoro-N,5-dimethyl-4-(1-((S)-1-(1-methyl-4-(4-(methylamino)-2-oxopyridin-1 (2H)-yl)-1H-pyrrolo[2,3-b]pyridin-2-yl)ethyl)-1,2,3,6-tetrahydropyridin-4-yl)benzamide]",0.4 nM
4,"CNc1cc(=O)n(-c2ccnc3c2cc([C@H](C)N2CC=C(c4c(C)cc(C(=O)N5CCC(CC6(O)CCN(c7ccc8c(c7)C7(CC7)C(=O)N8C7CCC(=O)NC7=O)CC6)CC5)cc4F)CC2)n3C)cc1F (stereo partly drawn) [Example 3u70, 3-(5′-(4-((1-(3-fluoro-4-(1-((S)-1-(4-(5-fluoro-4-(methylamino)-2-oxopyridin-1 (2H)-yl)-1-methyl-1H-pyrrolo[2,3-b]pyridin-2-yl)ethyl)-1,2,3,6-tetrahydropyridin-4-yl)-5-methylbenzoyl)-piperidin-4-yl)methyl)-4-hydroxypiperidin-1-yl)-2′-oxospiro[cyclopropane-1,3′-indolin]-1′-yl)-piperidine-2,6-dione]",5.8 nM
5,"CNc1ccn(-c2ccnc3c2cc([C@H](C)N2CC=C(c4c(C)cc(C(=O)N5CCC(CN6CCN(Cc7ccc8c(c7)n(C7CC7)c(=O)n8[C@H]7CCC(=O)NC7=O)CC6)CC5)cc4F)CC2)n3C)c(=O)c1 (single isomer, unassigned) [Example 3u123]",0.9 nM
6,"CNc1cc(=O)n(-c2ccnc3c2cc([C@H](C)N2CC=C(c4c(C)cc(C(=O)N5CCC(F)(CC6CCN(c7ccc8c(c7)C7(CC7)C(=O)N8C7CCC(=O)NC7=O)CC6)CC5)cc4F)CC2)n3C)cc1F (stereo partly drawn) [Example 3u21, 3-(5′-(4-((4-fluoro-1-(3-fluoro-4-(1-((S)-1-(4-(5-fluoro-4-(methylamino)-2-oxopyridin-1 (2H)-yl)-1-methyl-1H-pyrrolo[2,3-b]pyridin-2-yl)ethyl)-1,2,3,6-tetrahydropyridin-4-yl)-5-methylbenzoyl)piperidin-4-yl)methyl)piperidin-1-yl)-2′-oxospiro[cyclopropane-1,3′-indolin]-1′-yl)-piperidine-2,6-dione]",0.4 nM
7,"CNc1cc(=O)n(-c2ccnc3c2cc([C@H](C)N2CC=C(c4c(C)cc(C(=O)N(C)c5ccc(C6CCN(Cc7ccc8c(c7)C(C)(C)C(=O)N8[C@H]7CCC(=O)NC7=O)CC6)cc5)cc4F)CC2)n3C)cc1F (single isomer, unassigned) [Example 3u234]",0.1 nM
8,"CNc1ccn(-c2cccc3c2cc([C@H](C)N2CC=C(c4c(C)cc(C(=O)N5CCC(CN6CCN(Cc7cc8c(cc7F)n([C@H]7CCC(=O)NC7=O)c(=O)n8C7CC7)C[C@@H]6C)CC5)cc4F)CC2)n3C)c(=O)c1 (single isomer, unassigned) [Example 3u167]",0.8 nM
9,"Cc1cc(C(=O)N2CCC(CN3CCN(Cc4cc5c(cc4F)n([C@H]4CCC(=O)NC4=O)c(=O)n5C4CC4)CC3)CC2)cc(F)c1C1=CCN([C@@H](C)c2cc3c(-n4ccc5c(c4=O)CCN5)ccnc3n2C)CC1 (single isomer, unassigned) [Example 3u147]",1.6 nM
10,"CNc1ccn(-c2ccnc3c2cc([C@H](C)N2CC=C(c4c(C)cc(C(=O)N5CCC(CN6CCN(Cc7cc8c(cc7F)n(C7CCC(=O)NC7=O)c(=O)n8C7CC7)CC6)CC5)cc4F)CC2)n3C)c(=O)c1 (stereo partly drawn) [Example 3u103, 3-(3-cyclopropyl-6-fluoro-5-((4-((1-(3-fluoro-5-methyl-4-(1-((S)-1-(1-methyl-4-(4-(methylamino)-2-oxopyridin-1 (2H)-yl)-1H-pyrrolo[2,3-b]pyridin-2-yl)ethyl)-1,2,3,6-tetrahydropyridin-4-yl)benzoyl)piperidin-4-yl)methyl)piperazin-1-yl)methyl)-2-oxo-2,3-dihydro-1H-benzo[d]imidazol-1-yl)piperidine-2,6-dione]",2.5 nM
11,"CNc1ccn(-c2ccnc3c2cc([C@H](C)N2CC=C(c4c(C)cc(C(=O)N5CCn6c(nnc6C6CCN(Cc7ccc8c(c7)n(C)c(=O)n8C7CCC(=O)NC7=O)CC6)C5)cc4F)CC2)n3C)c(=O)c1 (stereo partly drawn) [Example 3u275, 3-(5-((4-(7-(3-fluoro-5-methyl-4-(1-((S)-1-(1-methyl-4-(4-(methylamino)-2-oxopyridin-1 (2H)-yl)-1H-pyrrolo[2,3-b]pyridin-2-yl)ethyl)-1,2,3,6-tetrahydropyridin-4-yl)benzoyl)-5,6,7,8-tetrahydro-[1,2,4]triazolo[4,3-a]pyrazin-3-yl)piperidin-1-yl)methyl)-3-methyl-2-oxo-2,3-dihydro-1H-benzo[d]imidazol-1-yl)piperidine-2,6-dione]",57.4 nM

# — patent US20250320206A1, “STAT6 DEGRADERS” (Gilead Sciences, Inc., priority 2024, published 2025)
